# Measurements as given in patent US10251408B2, “Catechin function enhancement method” (KYUSHU UNIVERSITY, NATIONAL UNIVERSITY CORPORATION, priority 2014, dated 2019).
# Key:
# caspase-3 = assay: Caspase-3 activation in MPC-11 tumor sections (immunohistological staining); assay type: in vivo, mouse; conditions: MPC-11-implanted balb/c mice; EGCG 15 mg/kg i.p. and eriodictyol 15 mg/kg i.p.; after 6 hours; FIG. 13
# Description: After female balb/c mice at 5 weeks of age were preliminarily kept for 2 weeks, a cell suspension of mouse multiple myeloma cell line MPC-11 suspended at 5×10^6 cells/mL in RPMI medium was implanted by subcutaneous injection in a volume of 200 μL into the right dorsal region of each mouse. At 11 days after implantation, the mice were administered […] with EGCG (15 mg/kg i.p.) and eriodictyol (15 mg/kg i.p.) and then sacrificed after 6 hours. Tumors were excised and tissue sections were prepared therefrom, followed by immunohistological staining to determine the number of cells where caspase-3 was activated. To examine the effect of eriodictyol on EGCG-induced activation of caspase-3 indicative of 67LR-dependent cancer cell death induction mechanism activity, female balb/c mice at 5 weeks of age were implanted with mouse multiple myeloma cell line MPC-11 by subcutaneous injection. At 11 days after implantation, the mice were administered with EGCG (15 mg/kg i.p.) and eriodictyol (15 mg/kg i.p.) and then sacrificed after 6 hours. Tissue sections were prepared from the excised tumors and evaluated for the activation state of caspase-3.
# [1] = system: Human multiple myeloma cell line U266; assay: Cancer cell apoptosis induction, Annexin V/PI flow cytometry; assay type: cell-based; conditions: EGCG and eriodictyol 5 μM each, 96 hours, FIG. 1
# Description: Human multiple myeloma cell line U266 was subcultured and maintained in RPMI 1640 medium supplemented with 10% fetal bovine serum (FCS) under conditions of 37° C. and water vapor-saturated 5% CO2. The cells were maintained in the logarithmic growth phase. The RPMI 1640 medium used for culture was prepared as follows: per liter of ultrapure water, RPMI 1640 medium (10.4 g), HEPES (2.38 g), injectable penicillin G potassium (100,000 units), streptomycin sulfate injectable (100 mg) and NaHCO3 (2.0 g) were suspended and then filter-sterilized.
# Then, the RPMI 1640 medium was supplemented with FCS and used for cell culture. To examine the apoptosis induction effect on human multiple myeloma cell line U266 produced upon combination of EGCG and eriodictyol, double staining was performed with Annexin V and PI. For use as a propidium iodide (PI) stain solution, PI (Sigma) was suspended in PBS at a concentration of 50 μg/mL. […]
# Then, the fully suspended cell culture was centrifuged at 300×g for 5 minutes to remove the supernatant, and then suspended with the Annexin V binding buffer, counted with a hemacytometer, centrifuged again at 300×g for 5 minutes and then suspended with the Annexin V binding buffer. […] After compensation, the Annexin V Alexa Fluor 488 conjugate was measured at FL 1 and cells determined to be positive were regarded as apoptotic cells. […]
# [2] = system: 3-hydroxy-3-methyl-glutaryl-CoA reductase (HMGCR); assay: Liver HMGCR mRNA by real-time PCR in HF/HS diet-fed mice; assay type: in vivo, mouse; conditions: HF/HS diet-fed C57BL/6J mice; Yabukita 0.2% and/or eriodictyol 0.45 g/kg diet; 8 weeks; FIG. 6
# Excerpt: (§1) Male C57BL/6J mice at 12 weeks of age were preliminarily kept for 1 week and then divided into 5 groups such that the average body weight was equal in all groups, i.e., a control (AIN-93G-based diet) group, a HF/HS (high-fat high-sucrose diet) group, a Yabukita (0.2%) (HF/HS+Yabukita) group, an eriodictyol (HF/HS+eriodictyol) group, and a Yabukita+eriodictyol (HF/HS+Yabukita+eriodictyol) group. A feed supplemented with Yabukita (0.2%) and eriodictyol (0.45 g/kg diet) was given to the mice. The feed was given in an amount of 4 g/day and the mice were kept for 8 weeks under ad libitum drinking conditions. After being fasted for 16 hours, the mice were sacrificed by abdominal aortic puncture under isoflurane anesthesia. […] Yabukita and eriodictyol were examined for their effect on cholesterol metabolism-related gene expression in the liver of high-fat high-sucrose diet-fed obese model mice. C57BL/6J mice were preliminarily kept for 1 week and then divided into the respective groups such that the average body weight was equal in all groups. Each feed was given in an amount of 4 g/day and the mice were kept for 8 weeks under ad libitum drinking conditions. After being fasted for 16 hours, the mice were sacrificed by abdominal aortic puncture under isoflurane anesthesia.
# [3] = system: low density lipoprotein receptor (LDLR); assay: Liver LDLR mRNA by real-time PCR in HF/HS diet-fed mice; assay type: in vivo, mouse; conditions: HF/HS diet-fed C57BL/6J mice; Yabukita 0.2% and/or eriodictyol 0.45 g/kg diet; 8 weeks; FIG. 6
# Excerpt: as §1
structure (smiles),measurement,setting,value
O=C1C[C@@H](c2ccc(O)c(O)c2)Oc2cc(O)cc(O)c21 [eriodictyol],effect on EGCG-induced caspase-3 activation in tumors,caspase-3,remarkably enhance the ability of EGCG to induce caspase-3 activation
same,effect on the cancer cell apoptosis induction effect of EGCG (Annexin V positive cells),[1],enhance the apoptosis induction effect of EGCG
same,mRNA expression level of HMGCR in the liver,[2],no effect
same,mRNA expression level of LDLR in the liver,[3],no effect
